The results in this text go back to patent US12612387B2, “RAS inhibitors and methods of using the same” (Jazz Pharmaceuticals Ireland Limited, priority 2020, dated 2026).

The target in one assay is T1, K-RAS G12C (Homo sapiens, UniProt P01116, G12C).
T1 construct: His tag; purchased Stratech
Description: Compound depletion assay, K-RAS G12C. It is filed as binding. To be noted: G12C protein 20 μM, compound 8 μM, 25° C. The essentials:
(§1)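 His-tagged K-RAS (20 μM) in 20 mM HEPES pH 7.5, 150 mM NaCl, 1 mM MgCl2 incubated with 8 μM compound (final) at 25 °C with agitation. At 0, 30, 180, 360, 1440 min, samples were acid/acetonitrile-quenched and remaining free compound quantified by LC-MS/MS against propranolol, as percent of time zero.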

The next assay has as its target T2, K-RAS G12D (Homo sapiens, UniProt P01116, G12D).
T2 construct: His tag; purchased Stratech
The assay is described as follows: Compound depletion assay, K-RAS G12D. To be noted: G12D protein 20 μM, compound 8 μM, 25° C. It counts as binding. The essentials:
as §1

T2 sequence (P01116 1-188 isoform P01116-2 G12D): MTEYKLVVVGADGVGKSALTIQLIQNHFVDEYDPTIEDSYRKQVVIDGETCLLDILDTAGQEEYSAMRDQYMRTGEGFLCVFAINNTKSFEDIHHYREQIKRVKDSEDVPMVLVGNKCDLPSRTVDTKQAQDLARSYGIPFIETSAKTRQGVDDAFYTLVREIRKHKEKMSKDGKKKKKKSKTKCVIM
T1 sequence (P01116 1-188 isoform P01116-2 G12C): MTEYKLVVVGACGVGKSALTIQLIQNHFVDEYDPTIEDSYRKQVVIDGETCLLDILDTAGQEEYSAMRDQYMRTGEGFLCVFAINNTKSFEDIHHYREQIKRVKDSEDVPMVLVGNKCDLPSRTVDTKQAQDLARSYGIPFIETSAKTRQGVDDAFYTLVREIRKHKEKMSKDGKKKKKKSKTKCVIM

On to `C=CC(=O)N1CCN(c2cc(C(=O)Nc3cccc(O)c3)nc(OC[C@@H]3CCCN3C)n2)CC1` [Example 04, N-(3-hydroxyphenyl)-2-[[(2S)-1-methylpyrrolidin-2-yl]methoxy]-6-(4-prop-2-enoylpiperazin-1-yl)pyrimidine-4-carboxamide], for which the “3 hr Category (compound remaining at timepoint)” value at K-RAS G12C and at K-RAS G12D was “A (≥70% compound remaining at timepoint)” throughout. For the same compound, the “24 hr Category (compound remaining at timepoint)” value at K-RAS G12C (24 hr) and on K-RAS G12D (24 hr) was “A (≥70% compound remaining at timepoint)” each time.

For `C=CC(=O)N1CCN(c2cc(C(=O)Nc3cc(O)cc4ccccc34)nc(OCC3CCCCN3C)n2)C[C@@H]1CC#N` (stereo partly drawn) [Example 48, 6-[(3S)-3-(cyanomethyl)-4-prop-2-enoyl-piperazin-1-yl]-N-(3-hydroxy-1-naphthyl)-2-[(1-methyl-2-piperidyl)methoxy]pyrimidine-4-carboxamide], at K-RAS G12C, the “30 min Category (compound remaining at timepoint)” value is recorded as “C (≤30% compound remaining at timepoint)”, the “3 hr Category (compound remaining at timepoint)” value was “C (≤30% compound remaining at timepoint)” and the “6 hr Category (compound remaining at timepoint)” value was “C (≤30% compound remaining at timepoint)”. On K-RAS G12D, the “30 min Category (compound remaining at timepoint)” value is listed as “A (≥70% compound remaining at timepoint)”, the “3 hr Category (compound remaining at timepoint)” value is listed as “A (≥70% compound remaining at timepoint)” and the “6 hr Category (compound remaining at timepoint)” value was “A (≥70% compound remaining at timepoint)”.

Consider `C=CC(=O)N1CCN(c2cc(C(=O)Nc3cc(O)cc4ccccc34)nc(NCc3ccnn3C)n2)C[C@@H]1CC#N` [Example 41, 6-[(3S)-3-(cyanomethyl)-4-prop-2-enoyl-piperazin-1-yl]-N-(3-hydroxy-1-naphthyl)-2-[(2-methylpyrazol-3-yl)methylamino]pyrimidine-4-carboxamide], for which, at K-RAS G12C, the “30 min Category (compound remaining at timepoint)” value was “A (≥70% compound remaining at timepoint)”, the “3 hr Category (compound remaining at timepoint)” value was “B (30%-70% compound remaining at timepoint)” and the “6 hr Category (compound remaining at timepoint)” value is recorded as “B (30%-70% compound remaining at timepoint)”. Moreover, on K-RAS G12D, the “30 min Category (compound remaining at timepoint)” value is reported as “A (≥70% compound remaining at timepoint)”, the “3 hr Category (compound remaining at timepoint)” value was “A (≥70% compound remaining at timepoint)” and the “6 hr Category (compound remaining at timepoint)” value is “A (≥70% compound remaining at timepoint)”.
